The text below walks through data of patent US9988430B2, “Stable GLP-1 based GLP-1/glucagon receptor co-agonists” (Novo Nordisk A/S, priority 2014, dated 2018).

Data set [1] deals with T1, human GLP-1 receptor (Homo sapiens, UniProt P43220).
T1 construct: expressed in transfected cells; host or cells: membranes of BHK cells, parent line BHKTS13, clone FCW467-12A
The data set is described as follows: Assay (II)(a): GLP-1 receptor binding, [125I]GLP-1 displacement, SPA on BHK membranes. The conditions noted are these: displacement of [125I]GLP-1, membranes with human GLP-1 receptor; read-out: IC50 GLP-1R. In outline: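 Membranes from BHK cells expressing human GLP-1 receptor with WGA SPA beads, [125I]GLP-1(7-36)NH2 (480 pM added solution) and compound in HEPES pH 7.4 buffer with EGTA, MgCl2, Tween 20. Incubated 2 h at 30° C; SPA counts fitted by non-linear regression to IC50 in nM.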
For orientation: Loss of bound radioactivity is the signal in a displacement assay; it reports binding, not function.

Data set [2] in a line: Assay (V): chemical stability assessment by RP-UPLC. Type of data set: physicochemical. The following applies: 14 days at 37° C. in phosphate buffer (pH 7.3). As to the method:
Assay (V): Chemical Stability Assessment
The purpose of this assay is to assess the chemical stability of the GLP-1 derivatives of the present invention in aqueous solutions.
Chemical stability of GLP-1 derivatives may be investigated by RP-UPLC separation and UV detection. Lyophilized samples are dissolved in a 8 mM Phosphate buffer pH 8.6, followed by adjustment to pH 7.3 using HCl to a final concentration of 333 μM. Samples are incubated for 14 days at 5° C. and 37° C. followed by RP-UPLC analysis. Purity is defined as the area percentage of the main peak in relation to the total area of all integrated peaks in each chromatogram. Purity loss, also referred to herein as chemical degradation, after 14 days at 37° C. is determined as the difference in purity between the samples incubated at 5° C. and 37° C., divided by the purity of the sample after incubation for 14 days at 5° C.
RP-UPLC analysis is performed using a Waters BEH130 2.1 mm×150 mm, 1.7 μm column operated at 50° C. and a flow rate of 0.4 mL/min using a mobile phase system consisting of A: 0.05% TFA in MQ-water, and B: 0.05% TFA in Acetonitrile. UV-detection is performed at 215 nm. The typical gradient profile used for most of the samples is shown below.
For some individual derivatives eluting at substantially different retention times compared with the majority of derivatives, some adjustments to the gradient profile are made to better enable purity assessment comparison across samples.

Data set [3] addresses T1, human GLP-1 receptor. The experiment in a line: Assay (I)(a): GLP-1 receptor potency, CRE luciferase reporter gene assay in BHK cells. Type of data set: cell-based. The conditions noted are these: BHK cells expressing human GLP-1 receptor, read-out: EC50 GLP-1R. The protocol:
Assay (I): GLP-1 and Glucagon Receptor Potency The purpose of this example was to test the activity or potency, of the GLP-1 derivatives of the invention, in vitro. The in vitro potency is the measure of human GLP-1 receptor (GLP-1R) or glucagon receptor (glucagonR) activation, respectively, in a whole cell assay. In vitro potency was determined by measuring the cellular response of human GLP-1 or glucagon receptor activation, respectively, in a reporter gene assay. The assay was performed in a BHK cell line that stably expresses either the human GLP-1 receptor or the human glucagon receptor and comprises the DNA for the cAMP response element (CRE) coupled to a promoter and the gene for firefly luciferase (CRE luciferase). […] When assay incubation was completed, the luciferase substrate (luciferin) was added and the enzyme converted luciferin to oxyluciferin and produces bioluminescence. The luminescence was measured as the readout for the assay. (a) GLP-1 Receptor Activation The cells used in this assay (clone FCW467-12A/KZ10-1) were BHK cells with BHKTS13 as a parent cell line. The cells were derived from a clone (FCW467-12A) that expresses the human GLP-1 receptor and were established by further transfection with CRE luciferase to obtain the current clone. The cells were cultured at 5% CO2 in DMEM medium with 10% FBS, 1×GlutaMAX, 1 mg/ml G418, 240 nM MTX (methotrexate) and 1% pen/strep (penicillin/streptomycin). They were aliquoted and stored in liquid nitrogen. Before each assay, an aliquot was taken up and washed three times in PBS before being suspended at the desired concentration in assay medium. For 96-well plates the suspension was made to give a final concentration of 5×10EE3 cells/well. The following chemicals were used in the assay: Pluronic F-68 (10%) (Gibco 2404), Ovalbumin (Sigma A5503), DMEM w/o phenol red (Gibco 11880-028), 1 M Hepes (Gibco 15630), Glutamax 100× (Gibco 35050) and steadylite plus (PerkinElmer 6016757). Assay Medium consisted of DMEM w/o phenol red, 10 mM Hepes, 1×GlutaMAX, 2% Ovalbumin and 0.2% Pluronic F-68. Cell stocks were thawed in a 37° C. water bath. Cells were washed three times in PBS. The cells were counted and adjusted to 5×10EE3 cells/50 μl (1×10EE5 cells/ml) in Assay Medium. A 50 μl aliquot of cells was transferred to each well in the assay plate. Stocks of the test compounds and reference compounds were diluted to a concentration of […] in Assay Medium. Compounds were diluted 10-fold to give the following concentrations: 2×10EE-6 M, 2×10EE-7 M, 2×10EE-8 M; 2×10EE-9 M, 2×10EE-10 M, 2×10EE-11 M, 2×10EE-12 M and 2×10EE-13 M. For each compound a blank assay medium control was also included. A 50 μl aliquot of compound or blank was transferred from the dilution plate to the assay plate. Compounds were tested at the following final concentrations: 1×10EE-6 M, 1×10EE-7 M, 1×10EE-8 M; 1×10EE-9 M, 1×10EE-10 M, 1×10EE-11 M and 1×10EE-12 M and 1×10EE-13 M. The assay plate was incubated for 3 h in a 5% CO2 incubator at 37° C. The assay plate was removed from the incubator and allowed to stand at room temperature for 15 min. A 100 μl aliquot of steadylite plus reagent was added to each well of the assay plate (reagent is light sensitive). Each assay plate was covered with aluminum foil to protect it from light and shaken for 30 min at room temperature. Each assay plate was read in a Perkin Elmer TopCount NXT instrument. The data from the TopCount instrument was transferred to GraphPad Prism software. The software performed a non-linear regression (log(agonist) vs response-Variable slope (four parameter)). EC50 values were calculated by the software and reported in pM.
Background: A reporter such as luciferase makes a cellular process visible.

Molecules are shown by their SMILES. *1 amine or outer side, *2 acyl side, *3 side chain or, on linkers, in order; H or OH if unused. Where a SMILES comes first, the peptide text is derived from it. Bridges are numbered along the chain shown (N, C = ends). Roman numbers before positions name the chains, in order. Side-chain parts run from the residue outwards. [ ]: non-standard residue; d: D form. The star is where a group is joined. C18 diacid = O=C(O)CCCCCCCCCCCCCCCCC(=O)*; γGlu = O=C(O)[C@H](CCC(=O)[*:2])N[*:1]; Desaminohistidyl = O=C(CCc1c[nH]cn1)*; Ac4c = NC1(C(=O)O)CCC1; AEEA = NCCOCCOCC(=O)O

T1 sequence (P43220 24-463): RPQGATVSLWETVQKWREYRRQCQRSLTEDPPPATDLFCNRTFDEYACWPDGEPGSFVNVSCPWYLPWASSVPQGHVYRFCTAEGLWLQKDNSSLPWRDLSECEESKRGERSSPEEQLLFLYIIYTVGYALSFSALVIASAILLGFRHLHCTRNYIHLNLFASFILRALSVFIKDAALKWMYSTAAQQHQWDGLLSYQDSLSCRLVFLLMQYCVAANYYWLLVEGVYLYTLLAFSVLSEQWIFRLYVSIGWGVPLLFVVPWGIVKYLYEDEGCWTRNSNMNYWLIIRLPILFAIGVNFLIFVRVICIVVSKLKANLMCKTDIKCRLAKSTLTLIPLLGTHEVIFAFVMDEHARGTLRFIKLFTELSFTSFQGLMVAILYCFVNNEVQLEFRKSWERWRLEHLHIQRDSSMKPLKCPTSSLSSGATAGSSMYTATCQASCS

Consider `CC[C@H](C)[C@H](NC(=O)[C@H](Cc1ccccc1)NC(=O)[C@H](CCC(=O)O)NC(=O)[C@H](CCCNC(=N)N)NC(=O)[C@H](C)NC(=O)[C@H](C)NC(=O)[C@H](CCC(N)=O)NC(=O)[C@H](CCC(=O)O)NC(=O)[C@H](CCC(=O)O)NC(=O)[C@H](CC(C)C)NC(=O)[C@H](Cc1ccc(O)cc1)NC(=O)[C@H](CCCCN)NC(=O)[C@H](CO)NC(=O)[C@H](Cc1ccc(O)cc1)NC(=O)[C@H](CC(=O)O)NC(=O)[C@H](CO)NC(=O)[C@@H](NC(=O)[C@H](Cc1ccccc1)NC(=O)[C@@H](NC(=O)CNC(=O)[C@H](Cc1c[nH]cn1)NC(=O)C1(NC(=O)CCc2c[nH]cn2)CCC1)[C@@H](C)O)[C@@H](C)O)C(=O)N[C@@H](C)C(=O)N[C@@H](Cc1c[nH]c2ccccc12)C(=O)N[C@@H](CC(C)C)C(=O)N[C@@H](CC(C)C)C(=O)N[C@@H](CCCCN)C(=O)N[C@@H](CCCCNC(=O)CNC(=O)[C@H](CO)NC(=O)[C@H](CCC(=O)O)NC(=O)CNC(=O)[C@H](CO)NC(=O)CC[C@H](NC(=O)CC[C@H](NC(=O)CCCCCCCCCCCCCCCCC(=O)O)C(=O)O)C(=O)O)C(N)=O` [Example 1, N^ε35-[2-[[(2S)-2-[[(2S)-4-carboxy-2-[[2-[[(2S)-2-[[(4S)-4-carboxy-4-[[(4S)-4-carboxy-4-(17-carboxyheptadecanoylamino)butanoyl]amino]butanoyl]amino]-3-hydroxypropanoyl]amino]acetyl]amino]butanoyl]amino]-3-hydroxypropanoyl]amino]acetyl]-[Imp7,Acb8,His9,Tyr16,Lys18,Glu22,Arg26,Leu33,Lys35]-GLP-1-(7-35)-peptide amide] (I: Desaminohistidyl-[Ac4c]HGTFTSDYSKYLEEQAAREFIAWLLKK-NH2 / II: {C18 diacid-γGlu-γGlu}-SGESG; amide I:28-II:C), for which the IC50 (as a rule, the concentration at which inhibition is half-maximal) on human GLP-1 receptor [1] stood at 0.7 nM. Moreover, in data set [2], the “Chemical stability: Chemical degradation over 14 days at 37° C.” value is listed as 1.5%.
For `CC[C@H](C)[C@H](NC(=O)[C@H](Cc1ccccc1)NC(=O)[C@H](CCC(=O)O)NC(=O)[C@H](CCCNC(=N)N)NC(=O)[C@H](C)NC(=O)[C@H](C)NC(=O)[C@H](CCC(N)=O)NC(=O)[C@H](CCC(=O)O)NC(=O)[C@H](CCC(=O)O)NC(=O)[C@H](CC(C)C)NC(=O)[C@H](Cc1ccc(O)cc1)NC(=O)[C@H](CCCNC(=N)N)NC(=O)[C@H](CO)NC(=O)[C@@H](NC(=O)[C@H](CC(=O)O)NC(=O)[C@H](CO)NC(=O)[C@@H](NC(=O)[C@H](Cc1ccccc1)NC(=O)[C@@H](NC(=O)CNC(=O)[C@H](Cc1c[nH]cn1)NC(=O)CNC(=O)CCc1c[nH]cn1)[C@@H](C)O)[C@@H](C)O)C(C)C)C(=O)N[C@@H](C)C(=O)N[C@@H](Cc1c[nH]c2ccccc12)C(=O)N[C@@H](CC(C)C)C(=O)N[C@@H](CC(C)C)C(=O)N[C@@H](CCCCNC(=O)CNC(=O)[C@H](CO)NC(=O)[C@H](CCC(=O)O)NC(=O)CNC(=O)[C@H](CO)NC(=O)CC[C@H](NC(=O)CC[C@H](NC(=O)CCCCCCCCCCCCCCCCC(=O)O)C(=O)O)C(=O)O)C(=O)N[C@H](C(N)=O)[C@@H](C)O` [Example 37, N^ε34-[2-[[(2S)-2-[[(2S)-4-carboxy-2-[[2-[[(2S)-2-[[(4S)-4-carboxy-4-[[(4S)-4-carboxy-4-(17-carboxyheptadecanoylamino)butanoyl]amino]butanoyl]amino]-3-hydroxypropanoyl]amino]acetyl]amino]butanoyl]amino]-3-hydroxypropanoyl]amino]acetyl]-[Imp7,Gly8,His9,Arg18,Glu22,Arg26,Leu33,Thr35]-GLP-1-(7-35)-peptide amide] (I: Desaminohistidyl-GHGTFTSDVSRYLEEQAAREFIAWLLKT-NH2 / II: {C18 diacid-γGlu-γGlu}-SGESG; amide I:27-II:C), the IC50 on human GLP-1 receptor [1] was found to be 3.2 nM. For the same compound, the EC50 (usually the midpoint of the concentration-response curve) on human GLP-1 receptor [3] is 0.008 nM.
On the same counts, the results for `CC[C@H](C)[C@H](NC(=O)[C@H](Cc1ccccc1)NC(=O)[C@H](CCC(=O)O)NC(=O)[C@H](CCCNC(=N)N)NC(=O)[C@H](C)NC(=O)[C@H](C)NC(=O)[C@H](CCC(N)=O)NC(=O)[C@H](CCC(=O)O)NC(=O)[C@H](CCC(=O)O)NC(=O)[C@H](CC(C)C)NC(=O)[C@H](Cc1ccc(O)cc1)NC(=O)[C@H](CCCNC(=N)N)NC(=O)[C@H](CO)NC(=O)[C@H](Cc1ccc(O)cc1)NC(=O)[C@H](CC(=O)O)NC(=O)[C@H](CO)NC(=O)[C@@H](NC(=O)[C@H](Cc1ccccc1)NC(=O)[C@@H](NC(=O)CNC(=O)[C@H](Cc1c[nH]cn1)NC(=O)C1(NC(=O)CCc2c[nH]cn2)CCC1)[C@@H](C)O)[C@@H](C)O)C(=O)N[C@@H](C)C(=O)N[C@@H](Cc1c[nH]c2ccccc12)C(=O)N[C@@H](CC(C)C)C(=O)N[C@@H](CC(C)C)C(=O)N[C@@H](CCCNC(=N)N)C(=O)N[C@@H](CCCCNC(=O)CC[C@H](NC(=O)COCCOCCNC(=O)CC[C@H](NC(=O)COCCOCCNC(=O)CC[C@H](NC(=O)COCCOCCNC(=O)CC[C@H](NC(=O)CC[C@H](NC(=O)CCCCCCCCCCCCCCCCC(=O)O)C(=O)O)C(=O)O)C(=O)O)C(=O)O)C(=O)O)C(N)=O` [Example 22, N^ε35-[(4S)-4-carboxy-4-[[2-[2-[2-[[(4S)-4-carboxy-4-[[2-[2-[2-[[(4S)-4-carboxy-4-[[2-[2-[2-[[(4S)-4-carboxy-4-[[(4S)-4-carboxy-4-(17-carboxyheptadecanoylamino)butanoyl]amino]butanoyl]amino]ethoxy]ethoxy]acetyl]amino]butanoyl]amino]ethoxy]ethoxy]acetyl]amino]butanoyl]amino]ethoxy]ethoxy]acetyl]amino]butanoyl]-[Imp7,Acb8,His9,Tyr16,Arg18,Glu22,Arg26,Leu33,Arg34,Lys35]-GLP-1-(7-35)-peptide amide] (Desaminohistidyl-[Ac4c]HGTFTSDYSRYLEEQAAREFIAWLLRK([γGlu-AEEA-γGlu-AEEA-γGlu-AEEA-γGlu-γGlu-C18 diacid])-NH2) are 0.9 nM and 0.003 nM.
